Assay results taken from publication PMC6978363, “Chaperone mediated detection of small molecule target binding in cells” (Nature Communications, 2020).

Columns and labels:
Experiment in all cases: biochemical
Brk = biological target: T1, Brk (Homo sapiens, UniProt Q13882); details: read-out: % Inhibition (at 10mM)
T1 construct: gene PTK6

CDK1/cyclinB = CDK1/cyclinB (Homo sapiens, UniProt P06493); details: read-out: % Inhibition (at 10mM)
CHK1 = biological target: T2, CHK1 (Homo sapiens, UniProt O14757); details: read-out: % Inhibition (at 10mM)
T2 construct: gene CHEK1

CK1_alpha1 = biological target: T3, CK1_alpha1 (Homo sapiens, UniProt P48729); details: read-out: % Inhibition (at 10mM)
T3 construct: gene CSNK1A1

CK1_delta = biological target: T4, CK1_delta (Homo sapiens, UniProt P48730); details: read-out: % Inhibition (at 10mM)
T4 construct: gene CSNK1D

CaMKII_beta = biological target: T5, CaMKII_beta (Homo sapiens, UniProt Q13554); details: read-out: % Inhibition (at 10mM)
T5 construct: gene CAMK2B

DCAMKL1 = biological target: T6, DCAMKL1 (Homo sapiens, UniProt O15075); details: read-out: % Inhibition (at 10mM)
T6 construct: gene DCLK1

DCAMKL2 = biological target: T7, DCAMKL2 (Homo sapiens, UniProt Q8N568); details: read-out: % Inhibition (at 10mM)
T7 construct: gene DCLK2

EphA5 = EphA5 (Homo sapiens, UniProt P54756); details: read-out: % Inhibition (at 10mM)
EphA8 = EphA8 (Homo sapiens, UniProt P29322); details: read-out: % Inhibition (at 10mM)
EphB2 = EphB2 (Homo sapiens, UniProt P29323); details: read-out: % Inhibition (at 10mM)
ErbB2 = ErbB2 (Homo sapiens, UniProt P04626); details: read-out: % Inhibition (at 10mM)
FGFR2 = FGFR2 (Homo sapiens, UniProt P21802); details: read-out: % Inhibition (at 10mM)
FGFR4 = FGFR4 (Homo sapiens, UniProt P22455); details: read-out: % Inhibition (at 10mM)
Fes = Fes (Homo sapiens, UniProt P07332); details: read-out: % Inhibition (at 10mM)
Fgr = Fgr (Homo sapiens, UniProt P09769); details: read-out: % Inhibition (at 10mM)
GCK = biological target: T8, GCK (Homo sapiens, UniProt Q12851); details: read-out: % Inhibition (at 10mM)
T8 construct: gene MAP4K2

GRK7 = GRK7 (Homo sapiens, UniProt Q8WTQ7); details: read-out: % Inhibition (at 10mM)
HIPK1 = HIPK1 (Homo sapiens, UniProt Q86Z02); details: read-out: % Inhibition (at 10mM)
MARK2 = MARK2 (Homo sapiens, UniProt Q7KZI7); details: read-out: % Inhibition (at 10mM)
MST1 = biological target: T9, MST1 (Homo sapiens, UniProt Q13043); details: read-out: % Inhibition (at 10mM)
T9 construct: gene STK4

NEK2 = NEK2 (Homo sapiens, UniProt P51955); details: read-out: % Inhibition (at 10mM)
NEK4 = NEK4 (Homo sapiens, UniProt P51957); details: read-out: % Inhibition (at 10mM)
NEK9 = NEK9 (Homo sapiens, UniProt Q8TD19); details: read-out: % Inhibition (at 10mM)
PAK3 = PAK3 (Homo sapiens, UniProt O75914); details: read-out: % Inhibition (at 10mM)
PEAK1 = PEAK1 (Homo sapiens, UniProt Q9H792); details: read-out: % Inhibition (at 10mM)
PKC_epsilon = biological target: T10, PKC_epsilon (Homo sapiens, UniProt Q02156); details: read-out: % Inhibition (at 10mM)
T10 construct: gene PRKCE

PKC_theta = biological target: T11, PKC_theta (Homo sapiens, UniProt Q04759); details: read-out: % Inhibition (at 10mM)
T11 construct: gene PRKCQ

Ron = biological target: T12, Ron (Homo sapiens, UniProt Q04912); details: read-out: % Inhibition (at 10mM)
T12 construct: gene MST1R

Ros = biological target: T13, Ros (Homo sapiens, UniProt P08922); details: read-out: % Inhibition (at 10mM)
T13 construct: gene ROS1

SGK1 = SGK1 (Homo sapiens, UniProt O00141); details: read-out: % Inhibition (at 10mM)
SGK2 = SGK2 (Homo sapiens, UniProt Q9HBY8); details: read-out: % Inhibition (at 10mM)
Srm = biological target: T14, Srm (Homo sapiens, UniProt Q9H3Y6); details: read-out: % Inhibition (at 10mM)
T14 construct: gene SRMS

TSSK2 = TSSK2 (Homo sapiens, UniProt Q96PF2); details: read-out: % Inhibition (at 10mM)
TYK2 = TYK2 (Homo sapiens, UniProt P29597); details: read-out: % Inhibition (at 10mM)
TrkA = biological target: T15, TrkA (Homo sapiens, UniProt P04629); details: read-out: % Inhibition (at 10mM)
T15 construct: gene NTRK1

ZAP-70 = biological target: T16, ZAP-70 (Homo sapiens, UniProt P43403); details: read-out: % Inhibition (at 10mM)
T16 construct: gene ZAP70

mTOR = mTOR (Homo sapiens, UniProt P42345)

Sequence of EphA5 (P54756 whole entry): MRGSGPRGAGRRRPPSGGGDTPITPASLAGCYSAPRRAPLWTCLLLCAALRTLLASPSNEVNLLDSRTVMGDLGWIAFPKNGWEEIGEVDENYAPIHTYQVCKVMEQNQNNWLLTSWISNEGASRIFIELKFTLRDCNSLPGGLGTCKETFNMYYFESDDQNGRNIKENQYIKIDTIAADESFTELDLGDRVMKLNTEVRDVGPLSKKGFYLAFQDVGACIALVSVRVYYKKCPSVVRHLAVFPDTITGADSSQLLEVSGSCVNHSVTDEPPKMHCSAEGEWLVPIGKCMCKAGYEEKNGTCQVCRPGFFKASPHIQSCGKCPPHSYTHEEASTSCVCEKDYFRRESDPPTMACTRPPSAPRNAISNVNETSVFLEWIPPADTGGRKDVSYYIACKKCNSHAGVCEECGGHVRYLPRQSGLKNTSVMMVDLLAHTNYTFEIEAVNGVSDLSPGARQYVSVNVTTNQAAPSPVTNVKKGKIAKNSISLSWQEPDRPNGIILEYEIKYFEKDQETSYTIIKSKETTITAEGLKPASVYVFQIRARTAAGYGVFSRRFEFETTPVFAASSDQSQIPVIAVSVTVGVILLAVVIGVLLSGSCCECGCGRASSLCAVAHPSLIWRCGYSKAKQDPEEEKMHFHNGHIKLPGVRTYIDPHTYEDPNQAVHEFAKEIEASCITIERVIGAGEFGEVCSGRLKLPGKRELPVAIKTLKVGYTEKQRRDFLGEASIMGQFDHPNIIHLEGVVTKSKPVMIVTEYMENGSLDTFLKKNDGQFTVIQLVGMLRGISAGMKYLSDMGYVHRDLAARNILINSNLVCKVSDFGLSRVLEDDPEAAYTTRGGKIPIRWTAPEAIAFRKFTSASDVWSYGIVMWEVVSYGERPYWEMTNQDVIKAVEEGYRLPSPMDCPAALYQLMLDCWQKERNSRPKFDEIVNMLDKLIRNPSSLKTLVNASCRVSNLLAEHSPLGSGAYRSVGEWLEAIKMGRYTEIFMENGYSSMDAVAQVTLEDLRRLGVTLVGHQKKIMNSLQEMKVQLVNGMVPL
T2 sequence (O14757 whole entry): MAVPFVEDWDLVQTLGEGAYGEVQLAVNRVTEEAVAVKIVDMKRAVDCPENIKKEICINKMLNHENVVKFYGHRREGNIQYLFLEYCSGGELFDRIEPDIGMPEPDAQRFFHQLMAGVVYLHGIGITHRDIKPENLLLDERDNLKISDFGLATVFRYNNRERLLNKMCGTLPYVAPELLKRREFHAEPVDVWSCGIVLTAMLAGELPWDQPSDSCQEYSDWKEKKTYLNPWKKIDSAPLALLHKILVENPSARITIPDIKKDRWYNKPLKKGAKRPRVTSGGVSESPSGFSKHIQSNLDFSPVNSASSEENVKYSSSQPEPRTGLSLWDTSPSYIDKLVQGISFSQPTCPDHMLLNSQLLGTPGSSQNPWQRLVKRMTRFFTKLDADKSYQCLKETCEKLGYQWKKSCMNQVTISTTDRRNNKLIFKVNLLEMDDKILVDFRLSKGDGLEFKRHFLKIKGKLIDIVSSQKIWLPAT
T4 sequence (P48730 whole entry): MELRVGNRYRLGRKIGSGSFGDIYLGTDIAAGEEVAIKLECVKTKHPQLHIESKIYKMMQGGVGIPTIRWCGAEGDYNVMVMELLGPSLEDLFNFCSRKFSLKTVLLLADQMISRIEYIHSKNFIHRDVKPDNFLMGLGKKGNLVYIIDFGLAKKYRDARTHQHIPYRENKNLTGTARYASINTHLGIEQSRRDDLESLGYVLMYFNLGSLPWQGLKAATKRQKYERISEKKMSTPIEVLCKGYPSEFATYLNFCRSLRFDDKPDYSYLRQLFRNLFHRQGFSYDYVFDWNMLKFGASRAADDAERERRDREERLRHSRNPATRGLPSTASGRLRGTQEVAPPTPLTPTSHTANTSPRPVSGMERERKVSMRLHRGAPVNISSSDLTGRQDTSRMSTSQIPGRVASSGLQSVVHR
Sequence of GRK7 (Q8WTQ7 whole entry): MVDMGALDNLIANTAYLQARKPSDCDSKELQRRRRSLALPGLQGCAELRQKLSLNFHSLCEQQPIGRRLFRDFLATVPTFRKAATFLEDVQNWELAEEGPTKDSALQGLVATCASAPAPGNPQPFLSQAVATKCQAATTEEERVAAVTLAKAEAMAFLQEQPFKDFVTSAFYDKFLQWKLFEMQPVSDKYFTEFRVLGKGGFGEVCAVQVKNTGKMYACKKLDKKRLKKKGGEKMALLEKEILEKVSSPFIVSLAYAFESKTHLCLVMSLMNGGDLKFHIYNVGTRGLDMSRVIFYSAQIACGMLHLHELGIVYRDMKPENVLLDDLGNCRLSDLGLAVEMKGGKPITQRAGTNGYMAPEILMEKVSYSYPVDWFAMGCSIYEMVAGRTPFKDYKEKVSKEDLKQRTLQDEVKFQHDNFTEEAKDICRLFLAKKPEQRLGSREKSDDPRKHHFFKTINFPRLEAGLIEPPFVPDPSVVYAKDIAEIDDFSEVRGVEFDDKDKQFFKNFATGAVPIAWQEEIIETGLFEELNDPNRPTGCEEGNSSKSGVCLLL
T1 sequence (Q13882 whole entry): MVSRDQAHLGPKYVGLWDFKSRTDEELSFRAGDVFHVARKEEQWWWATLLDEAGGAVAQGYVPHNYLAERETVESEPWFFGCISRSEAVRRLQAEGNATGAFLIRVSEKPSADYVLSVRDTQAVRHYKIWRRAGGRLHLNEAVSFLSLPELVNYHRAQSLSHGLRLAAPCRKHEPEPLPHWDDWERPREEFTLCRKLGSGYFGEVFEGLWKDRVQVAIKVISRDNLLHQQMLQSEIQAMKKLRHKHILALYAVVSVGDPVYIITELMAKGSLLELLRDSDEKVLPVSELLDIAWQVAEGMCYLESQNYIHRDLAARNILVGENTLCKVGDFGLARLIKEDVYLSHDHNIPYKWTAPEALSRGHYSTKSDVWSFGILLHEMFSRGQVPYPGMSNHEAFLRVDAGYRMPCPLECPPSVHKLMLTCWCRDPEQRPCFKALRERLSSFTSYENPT
T11 sequence (Q04759 whole entry): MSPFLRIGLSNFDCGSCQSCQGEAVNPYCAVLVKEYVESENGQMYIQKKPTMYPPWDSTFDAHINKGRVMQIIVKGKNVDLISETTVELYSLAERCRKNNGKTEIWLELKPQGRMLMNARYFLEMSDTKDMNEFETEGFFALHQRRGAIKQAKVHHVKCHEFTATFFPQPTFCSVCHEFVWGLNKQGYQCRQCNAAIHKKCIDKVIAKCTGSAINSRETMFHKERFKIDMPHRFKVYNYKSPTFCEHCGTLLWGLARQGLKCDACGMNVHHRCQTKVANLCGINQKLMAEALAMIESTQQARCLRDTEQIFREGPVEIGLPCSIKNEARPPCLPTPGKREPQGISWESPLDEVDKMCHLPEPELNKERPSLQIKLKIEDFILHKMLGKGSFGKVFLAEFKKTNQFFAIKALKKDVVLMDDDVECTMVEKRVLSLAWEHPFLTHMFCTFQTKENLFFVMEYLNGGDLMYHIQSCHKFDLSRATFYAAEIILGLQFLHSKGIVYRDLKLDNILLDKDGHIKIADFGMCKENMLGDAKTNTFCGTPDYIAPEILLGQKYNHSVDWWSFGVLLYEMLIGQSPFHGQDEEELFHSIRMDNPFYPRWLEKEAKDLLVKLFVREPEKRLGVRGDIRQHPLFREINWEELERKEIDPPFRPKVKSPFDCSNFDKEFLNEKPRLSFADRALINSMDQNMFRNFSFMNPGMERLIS
Sequence of SGK1 (O00141 whole entry): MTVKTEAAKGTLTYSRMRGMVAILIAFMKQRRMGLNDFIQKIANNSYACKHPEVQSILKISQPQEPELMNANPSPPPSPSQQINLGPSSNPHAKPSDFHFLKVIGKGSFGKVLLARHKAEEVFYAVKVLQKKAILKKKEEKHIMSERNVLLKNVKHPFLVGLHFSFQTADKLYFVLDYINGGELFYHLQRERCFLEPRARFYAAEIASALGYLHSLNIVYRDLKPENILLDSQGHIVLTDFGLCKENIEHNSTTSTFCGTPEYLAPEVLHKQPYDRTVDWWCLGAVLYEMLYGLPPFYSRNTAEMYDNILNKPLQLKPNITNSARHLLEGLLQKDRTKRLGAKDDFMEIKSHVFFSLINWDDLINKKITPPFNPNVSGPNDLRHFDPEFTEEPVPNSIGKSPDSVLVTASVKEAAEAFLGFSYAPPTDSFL
Sequence of MARK2 (Q7KZI7 whole entry): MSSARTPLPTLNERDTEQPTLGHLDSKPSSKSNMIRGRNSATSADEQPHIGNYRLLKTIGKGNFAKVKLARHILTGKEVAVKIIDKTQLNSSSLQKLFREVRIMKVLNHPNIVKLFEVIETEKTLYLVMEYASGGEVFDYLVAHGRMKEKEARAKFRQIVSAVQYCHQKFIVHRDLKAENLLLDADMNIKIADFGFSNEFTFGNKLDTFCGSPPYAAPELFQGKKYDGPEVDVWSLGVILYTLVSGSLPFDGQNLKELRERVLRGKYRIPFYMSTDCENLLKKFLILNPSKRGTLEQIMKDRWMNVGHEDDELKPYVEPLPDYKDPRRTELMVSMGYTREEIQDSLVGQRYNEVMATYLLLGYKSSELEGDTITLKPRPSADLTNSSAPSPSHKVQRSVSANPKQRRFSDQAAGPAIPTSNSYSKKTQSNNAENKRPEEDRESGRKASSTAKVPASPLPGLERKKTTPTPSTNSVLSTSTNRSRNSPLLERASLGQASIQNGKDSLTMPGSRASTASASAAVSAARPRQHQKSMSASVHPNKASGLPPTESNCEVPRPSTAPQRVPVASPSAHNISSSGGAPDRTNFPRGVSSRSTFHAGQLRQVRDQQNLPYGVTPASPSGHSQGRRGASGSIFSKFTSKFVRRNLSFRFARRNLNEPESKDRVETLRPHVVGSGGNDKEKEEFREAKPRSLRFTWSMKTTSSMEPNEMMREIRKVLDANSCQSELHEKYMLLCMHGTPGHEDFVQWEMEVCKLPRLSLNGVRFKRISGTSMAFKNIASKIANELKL

CC(C)(O)CC(=O)NCCn1ccc2ncnc(Nc3ccc(Oc4cccc(C(F)(F)F)c4)c(Cl)c3)c21 [TAK-285]
inhibition (Brk): 65% | inhibition (CDK1/cyclinB): 0.5% | inhibition (CHK1): 4.5% | inhibition (CK1_alpha1): 5.5% | inhibition (CK1_delta): -1.5% | inhibition (CaMKII_beta): 24.5% | inhibition (DCAMKL1): -2.5% | inhibition (DCAMKL2): -9.5% | inhibition (EphA5): 2% | inhibition (EphA8): 8% | inhibition (EphB2): 12% | inhibition (ErbB2): 99% | inhibition (FGFR2): 2% | inhibition (FGFR4): 6% | inhibition (Fes): 15.5% | inhibition (Fgr): 65% | inhibition (GCK): 6.5% | inhibition (GRK7): 5.5% | inhibition (HIPK1): 4.5% | inhibition (MARK2): 5.5% | inhibition (MST1): 2% | inhibition (NEK2): 4% | inhibition (NEK4): 8.5% | inhibition (NEK9): 0% | inhibition (PAK3): 12% | inhibition (PEAK1): 11% | inhibition (PKC_epsilon): 16% | inhibition (PKC_theta): 12% | inhibition (Ron): 28% | inhibition (Ros): 7.5% | inhibition (SGK1): 2% | inhibition (SGK2): 3.5% | inhibition (Srm): 13.5% | inhibition (TSSK2): 10.5% | inhibition (TYK2): 4.5% | inhibition (TrkA): 29% | inhibition (ZAP-70): 2% | inhibition at 10 µM (mTOR): 9.5%
